# In patent US7691985B2, “Skeletal-targeted radiation to treat bone-associated pathologies” (priority 1999, dated 2010):
# Tests used:
# [1] = Pharmacokinetics and patient specific dosimetry of ^166Ho-DOTMP in patients with breast cancer metastatic to bone (Example 6); format: in vivo, human
# Protocol: Eight patients with breast cancer metastatic only to bone initially received a 30 mCi dose of ^166Ho-DOTMP for diagnostic purposes. Pharmacokinetics were assessed via whole body counting, gamma camera imaging, and urine and blood assays for the first 48 hours following injection. Patients were followed with autologous stem cell transplantation for rescue from hematologic toxicity.
# Therapy doses were calculated based upon prescribed dose to the red bone marrow using the Medical Internal Radiation Dose (MIRD) technique and percentage localization in the skeleton. Appropriate S-values were provided by Oak Ridge National Laboratory. The desired target dose was 22 Gy to the red marrow calculated by the above technique for each individual. The average red marrow dose was calculated to be 1.97±0.92 cGy/mCi (range: 0.98 cGy/mCi to 3.19 cGy/mCi). Three patients proceeded to therapy, two were disqualified due to low uptake in the skeleton (≦30%; revised qualification: 15%), and three were disqualified for other reasons unrelated to the ^166Ho-DOTMP treatment.
# [2] = Stability of ^166Ho-DOTMP with and without stabilizer: radiochemical purity by ITLC, CEC, HPLC (Example 15); format: physicochemical; conditions: ascorbic acid about 35-75 mg/mL, ambient conditions, unfrozen
# Protocol: Samples of ^166Ho-DOTMP were prepared according to the procedure in Example 1 using ascorbic acid, 55 mg/mL, as the stabilizer. Identical samples were prepared without ascorbic acid. The solutions were analyzed for radiochemical purity after 1 hour, 6 hours, 10 hours, 24 hours, and 48 hours, using Instant Thin Layer Chromatography (ILTC), Cation Exchange Chromatography (CEC) and High Performance Liquid Chromatography (HPLC).
smiles,measurement,setting,value
O=P([O-])(O)CN1CCN(CP(=O)(O)O)CCN(CP(=O)([O-])O)CCN(CP(=O)(O)O)CC1.[166Ho] [^166Ho-DOTMP],effective skeletal half-life,[1]; 30 mCi diagnostic dose,19.9 ± 2.5 h
same,average percentage uptake in the skeleton,"[1]; 30 mCi diagnostic dose, eight patients",28±12%
same,material present in the urine,[1]; 6 hours post injection,Approximately 50%
same,injected dose remaining in whole blood,[1]; 24 hours post injection,a small percentage
same,whole blood clearance early T1/2,[1]; biphasic clearance,3 ± 2.4 min
same,whole blood clearance late T1/2,[1]; biphasic clearance,11 ± 4 h
same,average red marrow dose,[1]; calculated by MIRD technique,1.97±0.92 cGy/mCi
same,toxicity,"[1]; therapy, target 22 Gy to red marrow, three patients","Other than severe hematological suppression, no toxicity was noted"
same,"time the solution is stable, e.g., therapeutically useful",[2],≥ 72 h
